In US20240208945A1, “6-CARBAMATE SUBSTITUTED HETEROARYL RING DERIVATIVES” (MEDSHINE DISCOVERY INC., priority 2021, published 2024):
Where a name gives a salt, the structure may show the parent alone.

Assays:
[1] = tested on: Human pancreatic cancer cells (Miapaca2); test: In vivo drug efficacy in the Miapaca2 nude mouse xenograft tumor model; set-up: species or system Balb/c nude mice; conditions: Miapaca-2 xenograft, AMG-510 5 mg/kg once a day, compound 14 hydrochloride 50 mg/kg twice a day, intragastric
Experimental: Human pancreatic cancer cells (Miapaca2) were cultured in vitro as a monolayer on an adherent surface, and the culture conditions were DMEM medium plus 10% fetal bovine serum, cultured in a 37° C., 5% CO2 incubator. The cells were treated with trypsin-EDTA for routine digestion and passaged two to three times a week. When the cell saturation was 80% to 90% and the number reached the requirements, the cells were collected, counted, and inoculated.
Balb/c nude mice, female, 6 to 7 weeks old, were purchased from Shanghai SIPPR-BK Lab Animal Co., Ltd.
0.2 mL (5×10^6) Miapaca-2 cells (plus Matrigel, volume ratio of 1:1) were subcutaneously inoculated on the right back of each mouse, and the administration in groups began when the average tumor volume reached 118 mm^3.
The tumor diameter was measured twice a week with a vernier caliper, and the tumor volume was measured in cubic millimeters, calculated by the following formula: V=0.5a×b^2, wherein a and b are the long and short diameters of the tumor, respectively. The tumor inhibitory efficacy of the test compound was evaluated by using TGI (%). TGI (%) reflects the rate of tumor growth inhibition. […]

[2] = Pharmacokinetic evaluation in CD-1 mice (IV and oral); type: in vivo; conditions: mouse, plasma
Experimental: CD-1 mice (male, 7 to 9 weeks old, Shanghai SLAC)
The pharmacokinetic characteristics of the compound in rodents after intravenous injection and oral administration were tested according to the standard protocol. In the experiment, the candidate compound was formulated into clear solutions, and a single intravenous injection and oral administration were given to mice. The vehicle for intravenous injection and oral administration was a mixed vehicle composed of 10% dimethyl sulfoxide and 90% hydroxypropyl β-cyclodextrin with a content of 10%. In this project, four female CD-1 mice were used, and two mice were administered intravenously at a dose of 1 mg/kg. Plasma samples were collected at 0.033, 0.083, 0.25, 0.5, 1, 2, 4, 8, and 12 hours after administration. The other two mice were administered orally by gavage at a dose of 2 mg/kg. Plasma samples were collected at 0.083, 0.25, 0.5, 1, 2, 4, 8, and 12 hours after administration, […] at 4° C. for 10 minutes at 3,200×g, and the supernatants were separated from the plasma samples. The protein was precipitated by adding 20 times the volume of methanol solution containing internal standard, […] at 12000×g for 15 minutes, centrifuged at 4° C. 50 μL of the supernatant was transferred to a 96-well plate and centrifuged for a second time to take the supernatant for injection. The plasma concentration was quantitatively analyzed by LC-MS/MS analysis method, and the pharmacokinetic parameters were calculated, such as peak concentration (Cmax), clearance rate (CL), half-life (T1/2), volume of distribution at steady state (Vdss), area under drug-time curve (AUC0-last), bioavailability (F).

[3] = target: binding of KRAS(G12C) to SOS1 (Homo sapiens (Human), UniProt Q07889); test: KRAS(G12C) and SOS1 binding assay (HTRF); conditions: 25° C., 60 minutes
Text: The small molecular compound binds to the catalytic site of SOS1, thus inhibiting the binding of SOS1 to KRAS (G12C). When the binding of fluorescently labeled SOS1 protein to fluorescently labeled KRAS (G12C) protein is inhibited, the emitted fluorescence changes. The ability of small molecules to prevent the binding of SOS1 to KRAS (G12C) can be tested by detecting changes in fluorescence. A homogeneous time-resolved fluorescence (HTRF) binding assay was used to detect the ability of the compounds of the present disclosure to inhibit the binding of SOS1 to KRAS (G12C).
KRAS (G12C) protein was expressed and purified by Wuhan AtaGenix Biotechnology Co., Ltd., SOS1 exchange domin (564-1049) protein (Human recombinant) was purchased from Cytoskeleton, Mab Anti 6HIS-XL665 and Mab Anti GST-Eu cryptate were purchased from Cisbio. Multimode microplate reader Nivo5 was purchased from PerkinElmer.
1× buffer preparation (ready-to-use): Hepes: 5 mM; NaCl: 150 mM; EDTA: 10 mM; Igepal: 0.0025%; KF: 100 mM; DTT: 1 mM; BSA: […];
The test compounds were 5-fold diluted with DMSO using a multi-channel pipette to the 8th concentration, i.e., diluted from 1 mM to 0.064 μM.
The test compound was diluted by gradient with 1× buffer to a working solution with 2% DMSO. 5 μL/well of the working solution was added to corresponding wells, and the corresponding concentration gradient was 20 μM to […]. Duplicate experiment was set. The working solution was centrifuged at 1000 rpm for 1 minute.
A mixed working solution of KRAS(G12C) (200 nM) and Mab Anti GST-Eu cryptate (1 ng/μL) was prepared with 1× buffer, and the mixed working solution was incubated at 25° C. for 5 minutes, and 2.5 μL/well of the mixed working solution was added to the corresponding wells.
A mixed working solution of SOS1 (80 nM) and Mab Anti 6HIS-XL665 ([…]) was prepared with 1× buffer, and 2.5 μL/well of the mixed working solution was added to the corresponding wells. 2.5 μL of Mab Anti 6HIS-XL665 ([…]) diluent was added to blank wells. At this time, the final concentration gradient of the compound was diluted from 10 μM to 0.64 nM, KRAS(G12C) ([…]), MAb Anti GST-Eu cryptate (0.25 ng/μL), SOS1 (20 nM), Mab Anti 6HIS-XL665 (2 g/μL), the reaction system was placed at 25° C. for 60 minutes. After the reaction was completed, the multimode microplate reader was used to read HTRF.
Using the equation (Sample−Min)/(Max−Min)×100% to convert the raw data into inhibition rate, the IC50 value might be obtained by curve fitting with four parameters (obtained by “log (inhibitor) vs. response—Variable slope” mode in GraphPad Prism).

p-ERK in DLD-1 cells = test: p-ERK inhibitory activity test in DLD-1 cells (HTRF Phospho-ERK1/2 kit); type: cell-based; conditions: Homo sapiens, 1 hour incubation
Experimental: DLD-1 cells were purchased from Nanjing Cobioer; 1640 medium was purchased from Biological Industries; fetal bovine serum was purchased from Biosera; Advanced Phospho-ERK1/2 (THR202/TYR204) KIT was purchased from Cisbio.
DLD-1 cells were seeded in a transparent 96-well cell culture plate, with 80 μL of cell suspension per well and 8000 DLD-1 cells per well. The cell plate was incubated in a carbon dioxide incubator at 37° C. overnight; • the test compound was diluted to 2 mM with 100% DMSO as the first concentration, and then 5-fold diluted to the 8th concentration with a pipette, that is, diluted from 2 mM to 0.026 μM. 2 μL of compound was added to 78 μL of cell starvation medium. After mixing well, 20 μL of compound solution was taken and added to the corresponding cell plate wells, and the cell plate was put back to the carbon dioxide incubator to continue to incubate for 1 hour; at this time, the concentration of the compound was from 10 μM to 0.128 nM, and the concentration of DMSO was 0.5%; • after the incubation was completed, the cell supernatant was discarded, and 50 μL of cell lysate was added to each well, and incubated at room temperature for 30 minutes with shaking; • Phospho-ERK1/2 Eu Cryptate antibody and Phospho-ERK1/2 d2 antibody were 20-fold diluted using Detection buffer; • 16 μL of cell lysate supernatant per well was put into a new 384 white microplate, then 2 μL of Phospho-ERK1/2 Eu Cryptate antibody diluent and 2 μL of Phospho-ERK1/2 d2 antibody diluent were added thereto and incubated at room temperature for 4 hours; • after the incubation was completed, a multimode microplate reader was used to read HTRF excitation: 320 nm, emission: 615 nm, 665 nm.
Using the equation (Sample−Min)/(Max−Min)*100% to convert the raw data into inhibition rate, the IC50 value might be obtained by curve fitting with four parameters (obtained by “log (inhibitor) vs. response—Variable slope” mode in GraphPad Prism). • Max well: Positive control well reading is 1× lysate • Min well: Negative control well reading is 0.5% DMSO cell well cell lysate

Chain of binding of KRAS(G12C) to SOS1 (Q07889 564-1049, stated change not applied): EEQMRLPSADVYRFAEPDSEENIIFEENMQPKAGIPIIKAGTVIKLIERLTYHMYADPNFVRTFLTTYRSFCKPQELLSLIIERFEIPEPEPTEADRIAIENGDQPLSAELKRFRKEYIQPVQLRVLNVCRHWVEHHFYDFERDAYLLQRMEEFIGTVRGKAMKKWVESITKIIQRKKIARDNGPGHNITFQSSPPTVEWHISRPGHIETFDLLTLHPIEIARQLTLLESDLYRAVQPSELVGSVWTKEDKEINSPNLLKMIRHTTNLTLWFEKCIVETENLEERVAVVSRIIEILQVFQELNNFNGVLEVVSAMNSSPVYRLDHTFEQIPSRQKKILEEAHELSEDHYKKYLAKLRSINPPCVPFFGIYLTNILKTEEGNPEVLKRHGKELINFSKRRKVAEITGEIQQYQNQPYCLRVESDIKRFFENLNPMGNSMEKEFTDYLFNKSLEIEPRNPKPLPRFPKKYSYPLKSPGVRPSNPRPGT

SMILES: C=CC(=O)N1CCN(c2nc(=O)n(-c3c(C)ccnc3C(C)C)c3nc(-c4c(O)cccc4F)c(F)cc23)[C@@H](C)C1 (atropisomer, axis not shown) [AMG-510]
- Mean tumor volume ± SEM (day 22) [1]: 819 ± 407 mm^3
- TGI ([1]; day 22): 59.4%

SMILES: COc1cc2nc(C)nc(N[C@H](C)c3cccc(C(F)(F)C(C)(C)O)c3F)c2cc1OC(=O)N1CCN(C)CC1C (stereo partly shown) [Hydrochloride of compound 14]
- Cmax ([2]; IV 1 mg/kg and oral 2 mg/kg study, read-out: Peak concentration Cmax): 92.3 nM
- bioavailability ([2]; IV 1 mg/kg, PO 2 mg/kg, read-out: Bioavailability F): 33.9%
- clearance ([2]; IV 1 mg/kg, read-out: Clearance rate CL): 29.2 mL/min/kg
- half-life ([2]; IV 1 mg/kg, read-out: Half life T1/2 (IV) (converted)): 2.96 h
- Vd ([2]; IV 1 mg/kg, read-out: Volume of distribution at steady state Vdss): 4.95 L/kg
- AUC(0-t) ([2]; PO 2 mg/kg, read-out: Area under drug-time curve AUC0-last PO): 0.606 µM·h
- IC50 [3]: 40.4 nM
- IC50 (p-ERK in DLD-1 cells): 78.9 nM
